Article PMC9837035 (Nature Communications, 2023)
“And” between values parts separate entries of the source, which are not always exact repeats. Equal values may be shown once. One block for each compound: values may come before it.

Key:
[1] = tested on: rat myoblast cell line H9c2; assay: Cell viability assay (WST-8), H9c2; assay type: cell-based; conditions: control (0 μM) = 100
Method: (§1) A WST-8 (2-(2-methoxy-4-nitrophenyl)-3-(4-nitrophenyl)-5-(2,4-disulfophenyl)-2H-tetrazolium) assay using a Cell Counting Kit-8 (DOJINDO) was performed to measure cell viability using an EnSpire microplate reader (PerkinElmer).

HUDEP-2 cells = assay: Cell viability assay (WST-8), HUDEP-2; assay type: cell-based, human; conditions: control (0 μM) = 100
Method: as §1

mice = assay: Mouse acute toxicity assay, survival; assay type: in vivo; conditions: intravenous, 2-week observation
Method: All animal studies were approved by the Institutional Committee for Animal Experiments of the Institute of Microbial Chemistry, and were performed in accordance with relevant guidelines and regulations to minimize animal suffering. Four-week-old female ICR mice were purchased from Charles River Breeding Laboratories (Yokohama, Japan) and maintained in a specific pathogen-free barrier facility. […] Samples were dissolved in saline containing 10% DMSO and 1% Tween 80 and injected intravenously into mice.

[2] = tested on: Salmonella typhimurium TA100; assay: Ames test, TA100
Method: (§2) The Salmonella mutagenicity assay was performed by pre-incubating the test compounds for 20 min with Salmonella typhimurium strains TA98 and TA100, with and without metabolic activation (S9 mixture).
(§3) After this time 2 mL of top agar was added to the mixture and poured on to a plate containing minimum agar. The plates were incubated at 37 °C for 49 h and the His ± revertant colonies were counted manually and automatically by a colony counter (Colony analyzer CA-11D systems, System science Co.,Ltd.). The influence of metabolic activation was tested by adding 500 μL of 10% S9 mixture. All experiments were performed in duplicate. […] DMSO served as the negative control (100 μL/plate). The mutagenic index (MI, the average number of revertants per plate divided by the average number of revertants per plate from the negative control) was also calculated for each dose. A sample was considered positive when the MI was equal to or greater than 2 for at least one of the tested doses.

[3] = tested on: Salmonella typhimurium TA98; assay: Ames test, TA98
Method: as §2, §3

[4] = tested on: BGLT3 RNA in HUDEP-2 cells; assay: RT-qPCR of BGLT3 in HUDEP-2 cells; assay type: cell-based, human; conditions: relative to DMSO = 1, replicate values; for BGLT3 expression in HUDEP-2 cells: Sup.Fig.11a
Method: (§4) Total cellular RNA was prepared using the Tissue Total RNA Mini Kit (FAVORGEN), and cDNA was synthesized using ReverTra Ace Master Mix (TOYOBO). Expression of target genes was analyzed using THUNDERBIRD SYBR qPCR Mix (TOYOBO) on a CFX Connect Real Time System (Bio-Rad). The qPCR data were acquired on CFX Maestro (Bio-Rad). Primers are listed in Supplementary Table 10. GAPDH was used as a reference. Primers were purchased from INTEGRATED DNA TECHNOLOGIES or FASMAC.

[5] = tested on: BGLT3-knockdown HUDEP-2 cells; assay: RT-qPCR of BGLT3, β- and γ-globin in BGLT3-knockdown HUDEP-2 cells; assay type: cell-based, human; conditions: 1 μM, relative to shctrl DMSO = 1, replicate values
Method: as §4
Retroviral infection was used as previously described to establish cell lines stably expressing BGLT3 and transfected with the pCX4-pur vector, as well as knockdown cell lines transfected with the pSUPER vector[58]. Briefly, retroviruses were produced by transfecting PLAT-E cells with pCX4-pur-BGLT3 or pSUPER-ctrl, pSUPER-BGLT3, or pSUPER-G9a using 5 μg/mL polyethylenimine MAX (PEI MAX, Polysciences). Two days after transfection, the culture supernatant was collected and filtered through a 0.45-μm filter (Millipore) and used for infection with 8 μg/mL polybrene (Sigma). Forty-eight hours after infection, the infected cells were selected with 0.2 μg/mL puromycin (InvivoGen). The clonal puromycin-resistant cells were established via limiting dilution. The desired clones were confirmed by western blotting or qPCR.

G9a = target: T1, G9a (Homo sapiens, UniProt Q96KQ7); assay: In vitro G9a methyltransferase assay (AlphaLISA-based); assay type: biochemical; set-up: purchased BPS Bioscience
T1 sequence (Q96KQ7 1-1210): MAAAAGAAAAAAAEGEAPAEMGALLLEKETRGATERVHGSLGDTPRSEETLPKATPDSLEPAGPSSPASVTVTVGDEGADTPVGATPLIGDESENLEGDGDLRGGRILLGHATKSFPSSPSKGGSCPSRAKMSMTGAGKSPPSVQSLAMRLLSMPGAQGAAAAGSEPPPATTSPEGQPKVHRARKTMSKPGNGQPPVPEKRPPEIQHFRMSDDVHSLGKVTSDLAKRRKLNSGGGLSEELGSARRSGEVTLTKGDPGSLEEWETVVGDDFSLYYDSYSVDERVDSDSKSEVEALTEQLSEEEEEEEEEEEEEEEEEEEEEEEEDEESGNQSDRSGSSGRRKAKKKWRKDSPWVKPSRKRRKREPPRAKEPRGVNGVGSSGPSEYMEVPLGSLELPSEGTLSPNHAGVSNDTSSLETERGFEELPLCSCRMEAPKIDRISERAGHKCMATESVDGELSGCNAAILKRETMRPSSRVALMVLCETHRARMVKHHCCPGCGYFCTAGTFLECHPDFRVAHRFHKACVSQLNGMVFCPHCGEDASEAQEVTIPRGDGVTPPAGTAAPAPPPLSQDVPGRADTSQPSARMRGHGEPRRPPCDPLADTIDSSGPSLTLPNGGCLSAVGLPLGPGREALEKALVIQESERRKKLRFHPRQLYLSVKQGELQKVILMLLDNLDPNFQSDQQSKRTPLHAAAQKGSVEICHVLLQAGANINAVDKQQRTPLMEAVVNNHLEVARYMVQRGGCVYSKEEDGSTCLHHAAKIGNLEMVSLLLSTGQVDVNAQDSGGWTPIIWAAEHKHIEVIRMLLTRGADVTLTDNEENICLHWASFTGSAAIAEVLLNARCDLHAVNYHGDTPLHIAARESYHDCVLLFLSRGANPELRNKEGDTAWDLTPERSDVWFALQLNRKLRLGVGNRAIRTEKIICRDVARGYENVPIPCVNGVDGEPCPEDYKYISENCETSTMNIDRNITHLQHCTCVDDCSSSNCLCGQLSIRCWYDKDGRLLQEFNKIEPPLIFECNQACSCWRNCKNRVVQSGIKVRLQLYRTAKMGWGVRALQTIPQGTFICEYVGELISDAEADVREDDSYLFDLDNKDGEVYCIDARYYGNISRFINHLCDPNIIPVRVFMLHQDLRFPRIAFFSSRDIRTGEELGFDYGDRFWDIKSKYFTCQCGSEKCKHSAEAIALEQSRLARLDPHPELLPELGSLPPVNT
Method: An amplified luminescence proximity homogeneous assay (ALPHA) was performed with a modified version of a previously described method. Recombinant G9a proteins (BPS Bioscience) were incubated with 15 μM S-adenosyl-methionine (Sigma) and 50 nM biotinylated histone H3 (1-21; AnaSpec) in the assay buffer (50 mM Tris-HCl (pH 9.0), 50 mM NaCl, 0.01% Tween-20, and 1 mM DTT). After incubation at room temperature for 1 h, AlphaLISA anti-H3K9me2 acceptor beads (final concentration 10 μg/mL, PerkinElmer, AL117C) and AlphaScreen streptavidin donor beads (final concentration 10 μg/mL, PerkinElmer, 6760002B) were added and incubated for an additional 1 h prior to detection of the alpha signal with an EnSpire Alpha plate reader (PerkinElmer). ALPHA profile was analyzed using Origin (OriginLab).

[6] = tested on: β- and γ-globin genes in HUDEP-2 cells; assay: RT-qPCR of β- and γ-globin in HUDEP-2 cells; assay type: cell-based, human; conditions: single agents or combination; relative to DMSO = 1; replicate values
Method: as §4

[7] = G9a activity, AlphaLISA-based assay, mean of three experiments
[8] = Sup.Table1, three replicate values

Structure (SMILES): COc1cc2c(cc1OCCCN1CCCC1)N=C(N)C21CCC1 [A-366]
- cell viability in H9c2 cells ([1]; 0.039 μM): 104.360 and 99.467 and 89.907
- cell viability in H9c2 cells ([1]; 0.156 μM): 95.640 and 83.067 and 81.211
- cell viability in H9c2 cells ([1]; 0.625 μM): 92.264 and 78.533 and 78.882
- cell viability in H9c2 cells ([1]; 2.5 μM): 78.059 and 64.000 and 71.429
- cell viability in H9c2 cells ([1]; 10.0 μM): 53.868 and 49.733 and 52.329
- cell viability in HUDEP-2 cells (HUDEP-2 cells; 0.00457247 μM): 82.0673 and 97.2549 and 93.6968
- cell viability in HUDEP-2 cells (HUDEP-2 cells; 0.0137174 μM): 88.332 and 96 and 98.8075
- cell viability in HUDEP-2 cells (HUDEP-2 cells; 0.0411523 μM): 83.007 and 93.4902 and 87.9046
- cell viability in HUDEP-2 cells (HUDEP-2 cells; 0.123457 μM): 84.5732 and 96 and 89.6082
- cell viability in HUDEP-2 cells (HUDEP-2 cells; 0.37037 μM): 79.2482 and 92.549 and 93.6968
- cell viability in HUDEP-2 cells (HUDEP-2 cells; 1.11111 μM): 81.1276 and 90.6667 and 88.586
- cell viability in HUDEP-2 cells (HUDEP-2 cells; 3.33333 μM): 67.9718 and 80.3137 and 66.7802
- cell viability in HUDEP-2 cells (HUDEP-2 cells; 10 μM): 52.3101 and 64.9412 and 58.9438
- Number of alive mice (mice; 0.1953125 mg/kg): 3/3
- Number of alive mice (mice; 0.390625 mg/kg): 3/3
- Number of alive mice (mice; 0.78125 mg/kg): 3/3
- Number of alive mice (mice; 1.5625 mg/kg): 0/3
- Number of alive mice (mice; 3.125 mg/kg): 0/3

Structure (SMILES): NC(=O)C(=Cc1ccc([N+](=O)[O-])o1)c1ccco1 [AF-2, 2-(2-furyl)-3-(5-nitro-2-furyl)acrylamide, reference compound]
- Number of reverants/plate ([2]; TA100, - S9, base pair substitution mutation, 0.01 μg/plate): 725 and 728
- Number of revertants/plate ([2]; TA100, -S9, 0.01 μg/plate, positive control): 727
- Number of reverants/plate ([3]; TA98, - S9, frameshift mutation, 0.1 μg/plate): 497 and 507
- Number of revertants/plate ([3]; TA98, -S9, 0.1 μg/plate, positive control): 502

Structure (SMILES): Nc1ccccc1NC(=O)c1ccc(CNC(=O)OCc2cccnc2)cc1 [MS-275]
- BGLT3 expression in HUDEP-2 cells [4]: 14.3147 and 21.8274 and 19.7082
- β-globin gene in BGLT3-knockdown HUDEP-2 cells ([5]; shBGLT3 #1): 3.1513 and 3.12 and 3.5502
- γ-globin gene in BGLT3-knockdown HUDEP-2 cells ([5]; shBGLT3 #1): 20.155 and 19.0925 and 20.8632
- β-globin gene in BGLT3-knockdown HUDEP-2 cells ([5]; shBGLT3 #2): 2.766 and 2.148 and 2.288
- γ-globin gene in BGLT3-knockdown HUDEP-2 cells ([5]; shBGLT3 #2): 8.523 and 7.607 and 25.7598
- β-globin gene in BGLT3-knockdown HUDEP-2 cells ([5]; shBGLT3 #3): 1.145 and 1.259 and 1.535
- γ-globin gene in BGLT3-knockdown HUDEP-2 cells ([5]; shBGLT3 #3): 19.0595 and 19.9736 and 20.0664
- β-globin gene in BGLT3-knockdown HUDEP-2 cells ([5]; shctrl): 4.7699 and 6.2041 and 4.688
- γ-globin gene in BGLT3-knockdown HUDEP-2 cells ([5]; shctrl): 47.2575 and 62.7038 and 44.6998

- IC50 (G9a; [7]): 21.3 µM
- IC50 (G9a; [8]): 24.6 µM and 20.7 µM and 18.7 µM
Structure (SMILES): COC(=O)c1ccc2nc([C@H](CCSC)NC(=O)c3[nH]c4c(c3C)C(=O)CC(C)(C)C4)[nH]c2c1 [compound 8]

- IC50 (G9a; [7]): 0.3 µM
- IC50 (G9a; [8]): 0.299 µM and 0.291 µM and 0.316 µM
Structure (SMILES): CSCC[C@H](NC(=O)c1[nH]c2c(c1C)C(=O)CC(C)(C)C2)C(=O)Nc1ccccc1 [compound 9]

Structure (SMILES): Nc1ncn([C@H]2C[C@H](O)[C@@H](CO)O2)c(=O)n1 [decitabine]
- β-globin expression in HUDEP-2 cells treated with RK-701 and decitabine [6]: 0.9105 and 1.679 and 1.802
- γ-globin expression in HUDEP-2 cells treated with RK-701 and decitabine [6]: 5.299 and 8.189 and 8.892
- BGLT3 expression in HUDEP-2 cells [4]: 2.269 and 2.6404 and 2.1358
- BGLT3 expression in HUDEP-2 cells treated with RK-701 and decitabine ([4]; single agents or combination): 3.3143 and 2.772 and 4.351
- β-globin gene in BGLT3-knockdown HUDEP-2 cells ([5]; shBGLT3 #1): 0.735 and 0.7829 and 0.8722
- γ-globin gene in BGLT3-knockdown HUDEP-2 cells ([5]; shBGLT3 #1): 2.413 and 2.581 and 2.465
- β-globin gene in BGLT3-knockdown HUDEP-2 cells ([5]; shBGLT3 #2): 0.6218 and 0.5853 and 0.4869
- γ-globin gene in BGLT3-knockdown HUDEP-2 cells ([5]; shBGLT3 #2): 2.574 and 2.659 and 3.171
- β-globin gene in BGLT3-knockdown HUDEP-2 cells ([5]; shBGLT3 #3): 0.8092 and 0.8421 and 1.086
- γ-globin gene in BGLT3-knockdown HUDEP-2 cells ([5]; shBGLT3 #3): 1.425 and 1.467 and 1.465
- β-globin gene in BGLT3-knockdown HUDEP-2 cells ([5]; shctrl): 0.8786 and 0.8917 and 0.7285
- γ-globin gene in BGLT3-knockdown HUDEP-2 cells ([5]; shctrl): 8.583 and 10.749 and 7.48
